Calls of active or inactive are those of the source. The rule behind the calls is not given here.
Experiments:
[1] = Ratio of drug level in brain to plasma in Sprague-Dawley rat at 0.6 mg/kg via oral gavage; assay type: ADME, organism-based; details: read-out: BPR
[2] = system: Rattus norvegicus; experiment: In-vivo reversible inhibition of FAAH in Sprague-Dawley rat brain homogenate assessed as residual activity measured as [3H]-anandamide hydrolysis after 48 hrs by liquid scintillation analysis; assay type: functional, organism-based
[3] = Ratio of drug level in brain to plasma in Sprague-Dawley rat at 6 mg/kg via oral gavage; assay type: ADME, organism-based; details: read-out: BPR
[4] = system: Rattus norvegicus; experiment: Inhibition of FAAH in Sprague-Dawley rat brain homogenate assessed as time duration needed for enzyme activity recovery by measuring [3H]-anandamide hydrolysis at 20 mg/kg by liquid scintillation analysis; assay type: functional
[5] = Clearance in Sprague-Dawley rat; assay type: ADME, organism-based; details: in vivo
[6] = Ratio of drug level in brain to plasma in Sprague-Dawley rat at 20 mg/kg via oral gavage; assay type: ADME, organism-based; details: read-out: BPR
[7] = Volume of distribution at Steady state in Sprague-Dawley rat; assay type: ADME, organism-based; details: in vivo, read-out: Vdss
[8] = Dissociation constant, pKa of the compound; assay type: physicochemical
[9] = system: Rattus norvegicus; experiment: Inhibition of FAAH in Sprague-Dawley rat brain homogenate assessed as increase in OEA levels at 20 mg/kg after 0.5 to 4 hrs by […]; assay type: functional, organism-based
[10] = system: Rattus norvegicus; experiment: Inhibition of FAAH in Sprague-Dawley rat brain homogenate assessed as increase in PEA levels at 20 mg/kg after 0.5 to 4 hrs by […]; assay type: functional, organism-based
[11] = Oral bioavailability in Sprague-Dawley rat; assay type: ADME, organism-based; details: in vivo
[12] = target: T1, Fatty-acid amide hydrolase 1 (Rattus norvegicus, UniProt P97612); experiment: Apparent inhibition of recombinant rat FAAH expressed in SK-N-MC cells assessed as [3H]-anandamide hydrolysis after 1 hr by liquid scintillation analysis; assay type: cell-based
T1 sequence (P97612 whole entry): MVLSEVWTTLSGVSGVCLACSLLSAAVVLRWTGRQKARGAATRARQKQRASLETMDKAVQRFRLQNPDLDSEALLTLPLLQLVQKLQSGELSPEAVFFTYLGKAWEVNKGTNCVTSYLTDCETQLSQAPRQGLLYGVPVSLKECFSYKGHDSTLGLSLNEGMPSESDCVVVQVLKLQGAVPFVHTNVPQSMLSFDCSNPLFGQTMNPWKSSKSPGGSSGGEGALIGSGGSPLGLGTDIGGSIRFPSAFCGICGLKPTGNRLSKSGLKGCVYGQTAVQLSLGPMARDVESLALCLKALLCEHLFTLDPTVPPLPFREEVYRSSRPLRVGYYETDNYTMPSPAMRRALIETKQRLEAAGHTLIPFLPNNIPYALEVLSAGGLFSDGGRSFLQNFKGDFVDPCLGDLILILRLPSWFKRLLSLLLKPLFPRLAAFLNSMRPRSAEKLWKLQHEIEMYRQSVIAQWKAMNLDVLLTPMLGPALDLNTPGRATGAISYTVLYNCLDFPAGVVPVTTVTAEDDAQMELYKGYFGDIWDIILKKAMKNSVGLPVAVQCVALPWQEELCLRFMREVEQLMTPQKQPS

[13] = target: T2, Fatty-acid amide hydrolase 1 (Homo sapiens, UniProt O00519)
T2 sequence (O00519 whole entry): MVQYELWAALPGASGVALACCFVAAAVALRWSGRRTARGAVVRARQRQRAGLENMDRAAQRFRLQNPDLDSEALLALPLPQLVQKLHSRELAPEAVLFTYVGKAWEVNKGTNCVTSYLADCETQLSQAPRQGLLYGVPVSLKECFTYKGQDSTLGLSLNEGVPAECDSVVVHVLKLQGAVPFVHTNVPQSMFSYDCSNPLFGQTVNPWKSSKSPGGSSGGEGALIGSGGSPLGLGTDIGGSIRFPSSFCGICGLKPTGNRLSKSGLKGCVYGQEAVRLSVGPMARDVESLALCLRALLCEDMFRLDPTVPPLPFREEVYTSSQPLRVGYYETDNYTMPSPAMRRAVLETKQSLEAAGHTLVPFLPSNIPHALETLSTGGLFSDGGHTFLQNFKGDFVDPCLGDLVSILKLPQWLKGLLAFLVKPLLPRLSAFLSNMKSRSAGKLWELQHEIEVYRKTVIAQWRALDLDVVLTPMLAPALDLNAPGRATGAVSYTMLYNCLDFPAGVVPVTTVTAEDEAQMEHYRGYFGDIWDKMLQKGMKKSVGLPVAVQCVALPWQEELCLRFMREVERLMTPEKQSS

[14] = Ratio of drug level in brain to plasma in Sprague-Dawley rat at 10 mg/kg via oral gavage; assay type: ADME, organism-based; details: read-out: BPR
[15] = organism: Rattus norvegicus; details: Sprague-Dawley, Brain, 20 mg/kg
Description: Inhibition of FAAH in Sprague-Dawley rat brain homogenate assessed as reduction in residual activity measured as [3H]-anandamide hydrolysis at 20 mg/kg measured after 0.5 to 6 hrs by liquid scintillation analysis

[16] = system: Rattus norvegicus; experiment: Inhibition of FAAH in Sprague-Dawley rat brain homogenate assessed as residual activity measured as [3H]-anandamide hydrolysis at 20 mg/kg within 30 mins by liquid scintillation analysis; assay type: functional
[17] = system: Rattus norvegicus; experiment: Inhibition of FAAH in Sprague-Dawley rat brain homogenate assessed as increase in OEA levels at 0.1 to 100 mg/kg measured 4 hrs post dosing by […]; assay type: functional, organism-based
[18] = system: Rattus norvegicus; experiment: Inhibition of FAAH in Sprague-Dawley rat brain homogenate assessed as increase in PEA levels at 0.1 to 100 mg/kg measured 4 hrs post dosing by […]; assay type: functional, organism-based
[19] = Dissociation constant, pKa of the compound at pH 7.2; assay type: physicochemical
[20] = system: Brain; experiment: Drug uptake in Sprague-Dawley rat brain at 20 mg/kg via oral gavage after 4 hrs by LC-MS/MS analysis; assay type: ADME, organism-based; details: in vivo
[21] = system: Plasma; experiment: Drug uptake in Sprague-Dawley rat plasma at 20 mg/kg via oral gavage after 4 hrs by LC-MS/MS analysis; assay type: ADME, organism-based; details: in vivo

Row | SMILES | Time [4] | clearance [5] | Kp [6] | Vd [7] | OEA level increase (activity call) [9] | FAAH inhibition (PEA level increase), active/inactive [10] | bioavailability [11] | IC50 [12] | IC50 [13] | further results
1 | O=C(Nc1cccnc1)N1CCN(Cc2cccc(Oc3ccc(Cl)cc3)c2)CC1 | 24 h | 11.5 mL/min/kg | 2.62 | 3.2 L/kg |  |  |  |  |  | Kp [1]: 2.62; inhibition [2]: Active; Kp [3]: 2.62; pKa [8]: 5.25
2 | O=C(Nc1cc[nH]n1)N1CCN(Cc2cccc(Oc3ccc(Cl)cc3)c2)CC1 | 24 h | 8.33 mL/min/kg |  | 2 L/kg | Active | Active | 75% |  |  | pKa [8]: 2.5
3 | O=C(Nc1cccnc1)N1CCC(Cc2cccc(Oc3ccc(Cl)cn3)c2)CC1 | 24 h |  | 0.45 |  | Active | Active |  | 22 nM | 1 nM | 
4 | O=C(Nc1ccccc1)N1CCN(Cc2cccc(Oc3ccc(Cl)cc3)c2)CC1 | 24 h |  |  |  |  |  |  |  |  | Kp [14]: 3.64
5 | O=C(Nc1cnccc1Cl)N1CCN(Cc2cccc(Oc3ccc(F)cc3)c2)CC1 | 24 h |  | 0.67 |  | Active | Active |  | 48 nM | 3.3 nM | 
6 | O=C(Nc1cccnc1)N1CCN(Cc2cccc(Oc3ccc(F)cc3)c2)CC1 | 24 h | 10 mL/min/kg | 1.57 | 4 L/kg | Active | Active | 100% | 290 nM | 16 nM | 
7 | O=C(Nc1cnccn1)N1CCN(Cc2cccc(Oc3ccc(Cl)cc3)c2)CC1 | 24 h | 15.5 mL/min/kg |  | 4.11 L/kg | Active | Active | 35% | 84 nM |  | inhibition [15]: Active; Activity [16]: 10%; pKa [8]: 0.6
8 | O=C(Nc1cccnc1)N1CCN(Cc2cccc(Oc3ccc(C(F)(F)F)cc3)c2)CC1 | 24 h |  | 1.99 |  |  |  |  |  |  | inhibition [17]: Active; inhibition [18]: Active
9 | O=C(Nc1ccon1)N1CCN(Cc2cccc(Oc3ccc(Cl)cc3)c2)CC1 | 24 h | 10 mL/min/kg |  | 2.6 L/kg | Active | Active | 50% |  |  | 
10 | O=C(Nc1cccc2nccn12)N1CCN(Cc2cccc(Oc3ccc(Cl)cc3)c2)CC1 | 24 h |  |  |  | Active | Active |  |  |  | pKa [19]: 6.8
11 | O=C(Nc1nnn[nH]1)N1CCN(Cc2cccc(Oc3ccc(Cl)cc3)c2)CC1 |  | 3.33 mL/min/kg |  | 1.1 L/kg |  |  | 100% |  |  | pKa [19]: 4.9
12 | O=C(Nc1cccnc1)N1CCCC(Cc2cccc(Oc3ccc(F)cc3)c2)C1 (configuration not stated) | 24 h |  | 0.33 |  | Active | Active |  | 41 nM | 28 nM | 
13 | O=C(Nc1cnccc1Cl)N1CCN(Cc2cccc(Oc3ccc(Cl)cc3)c2)CC1 | 24 h | 46.5 mL/min/kg | 1.18 | 3.33 L/kg | Active | Active | 18% | 20 nM | 1.3 nM | pKa [8]: 3.85
14 | O=C(Nc1noc2ccccc12)N1CCN(Cc2cccc(Oc3ccc(Cl)cc3)c2)CC1 | 24 h | 9.33 mL/min/kg |  | 2.48 L/kg | Active | Active | 44% | 8 nM |  | 
15 | O=C(Nc1cccnc1)N1CCN(Cc2cc(Cl)cc(Oc3ccc(Cl)cc3)c2)CC1 | 24 h |  | 1.26 |  | Active | Active |  | 76 nM | 8 nM | Drug uptake [20]: Dose-dependent effect; Drug uptake [21]: Dose-dependent effect
16 | O=C(Nc1cccnc1)N1CCC(Cc2cccc(Oc3ccc(Cl)cc3)c2)CC1 | 24 h |  | 2.26 |  | Active | Active |  | 215 nM | 4.3 nM | 
17 | O=C(Nc1cccnc1)N1CCN(Cc2cccc(Oc3ccc(Br)cc3)c2)CC1 | 24 h | 13.3 mL/min/kg | 1.58 | 2.8 L/kg |  |  | 100% | 20 nM | 2.4 nM | 
18 | N#Cc1ccncc1NC(=O)N1CCN(Cc2cccc(Oc3ccc(Cl)cc3)c2)CC1 | 24 h |  | 3.28 |  | Active | Active |  | 17 nM | 17 nM | pKa [8]: 1.9
